System: 817829-284-R-J1-PDC multi-cell spheroid viability
Assay: Anticancer human tumor 817829-284-R-J1-PDC patient-derived colon adenocarcinoma cell line growth inhibition [PI3K]
Details: for IC50: curve of first compound; for viability, T/C: stronger effect = lower value
Outline: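 Tumor cells grown as multi-cell spheroids with HUVEC endothelial cells and MSC fibroblast-like stroma were treated with targeted agents combined with inavolisib, alpelisib, duvelisib or copanlisib. Doses fell in half-log steps from near clinical Cmax, else from 10 microM. Viability was measured.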

[1] = second compound 0.0316 µM, first compound 0.0316 µM
[2] = second compound 0.0316 µM, first compound 0.1 µM
[3] = second compound 0.0316 µM, first compound 0.316 µM
[4] = second compound 0.0316 µM, first compound 1 µM
[5] = second compound 0.0316 µM, first compound 3.16 µM
[6] = second compound 0.0316 µM, first compound 10 µM
[7] = second compound 0.1 µM, first compound 0.0316 µM
[8] = second compound 0.1 µM, first compound 0.1 µM
[9] = second compound 0.1 µM, first compound 0.316 µM
[10] = second compound 0.1 µM, first compound 1 µM
[11] = second compound 0.1 µM, first compound 3.16 µM
[12] = second compound 0.1 µM, first compound 10 µM
[13] = second compound 0.316 µM, first compound 0.0316 µM
[14] = second compound 0.316 µM, first compound 0.1 µM
[15] = second compound 0.316 µM, first compound 0.316 µM
[16] = second compound 0.316 µM, first compound 1 µM
[17] = second compound 0.316 µM, first compound 3.16 µM
[18] = second compound 0.316 µM, first compound 10 µM
[19] = second compound 1 µM, first compound 0.0316 µM
[20] = second compound 1 µM, first compound 0.1 µM
[21] = second compound 1 µM, first compound 0.316 µM
[22] = second compound 1 µM, first compound 1 µM
[23] = second compound 1 µM, first compound 3.16 µM
[24] = second compound 1 µM, first compound 10 µM
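Note: spheroids exposed to agents for seven days before readout.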
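Throughout, for viability, T/C: percent of vehicle DMSO control viability which is 100%.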

## C#Cc1c(F)ccc2cc(O)cc(-c3ncc4c(N5CC6CCC(C5)N6)nc(OCC56CCCN5CC(F)C6)nc4c3F)c12 (stereo unspecified) + COc1c(OCCCN2CCOCC2)ccc2c3n(c(=NC(=O)c4cnc(N)nc4)nc12)CCN3
Second compound 0.00316 µM
  IC50: > 10000 nM
Second compound 0.01 µM
  IC50: > 10000 nM
Second compound 0.0316 µM
  IC50: 7450 nM
Second compound 0.1 µM
  IC50: < 31.6 nM
Second compound 0.316 µM
  IC50: < 31.6 nM
Second compound 1 µM
  IC50: < 31.6 nM
Second compound 0.00316 µM, first compound 0.0316 µM
  viability, T/C: 64.9%
Second compound 0.00316 µM, first compound 0.1 µM
  viability, T/C: 82.5%
Second compound 0.00316 µM, first compound 0.316 µM
  viability, T/C: 83.7%
Second compound 0.00316 µM, first compound 1 µM
  viability, T/C: 71.8%
Second compound 0.00316 µM, first compound 3.16 µM
  viability, T/C: 77%
Second compound 0.00316 µM, first compound 10 µM
  viability, T/C: 70.2%
Second compound 0.01 µM, first compound 0.0316 µM
  viability, T/C: 86.2%
Second compound 0.01 µM, first compound 0.1 µM
  viability, T/C: 84%
Second compound 0.01 µM, first compound 0.316 µM
  viability, T/C: 62.9%
Second compound 0.01 µM, first compound 1 µM
  viability, T/C: 61.8%
Second compound 0.01 µM, first compound 3.16 µM
  viability, T/C: 69.6%
Second compound 0.01 µM, first compound 10 µM
  viability, T/C: 51.1%
[1]
  viability, T/C: 73.8%
[2]
  viability, T/C: 41.5%
[3]
  viability, T/C: 53.7%
[4]
  viability, T/C: 50.4%
[5]
  viability, T/C: 74.8%
[6]
  viability, T/C: 37.2%
[7]
  viability, T/C: 28.6%
[8]
  viability, T/C: 40.5%
[9]
  viability, T/C: 37.6%
[10]
  viability, T/C: 21.4%
[11]
  viability, T/C: 37.8%
[12]
  viability, T/C: 30.8%
[13]
  viability, T/C: 17.4%
[14]
  viability, T/C: 26.3%
[15]
  viability, T/C: 22.2%
[16]
  viability, T/C: 14.9%
[17]
  viability, T/C: 18%
[18]
  viability, T/C: 12.4%
[19]
  viability, T/C: 8.66%
[20]
  viability, T/C: 9.22%
[21]
  viability, T/C: 8.61%
[22]
  viability, T/C: 8.24%
[23]
  viability, T/C: 5.56%
[24]
  viability, T/C: 6.03%

## CNC(=O)c1ccc(N2C(=S)N(c3ccc(C#N)c(C(F)(F)F)c3)C(=O)C2(C)C)cc1F + Cc1nc(NC(=O)N2CCCC2C(N)=O)sc1-c1ccnc(C(C)(C)C(F)(F)F)c1
Second compound 0.0316 µM
  IC50: > 10000 nM
Second compound 0.1 µM
  IC50: > 10000 nM
Second compound 0.316 µM
  IC50: > 10000 nM
Second compound 1 µM
  IC50: 6960 nM
Second compound 3.16 µM
  IC50: 2350 nM
Second compound 10 µM
  IC50: 1150 nM
[1]
  viability, T/C: 95.7%
[2]
  viability, T/C: 102%
[3]
  viability, T/C: 96.2%
[4]
  viability, T/C: 90.2%
[5]
  viability, T/C: 67.6%
[6]
  viability, T/C: 84.6%
[7]
  viability, T/C: 69%
[8]
  viability, T/C: 77.8%
[9]
  viability, T/C: 87.4%
[10]
  viability, T/C: 69.3%
[11]
  viability, T/C: 56.4%
[12]
  viability, T/C: 68.2%
[13]
  viability, T/C: 106%
[14]
  viability, T/C: 85.5%
[15]
  viability, T/C: 68.8%
[16]
  viability, T/C: 70.6%
[17]
  viability, T/C: 77.2%
[18]
  viability, T/C: 63.3%
[19]
  viability, T/C: 60%
[20]
  viability, T/C: 73.6%
[21]
  viability, T/C: 68.7%
[22]
  viability, T/C: 107%
[23]
  viability, T/C: 63.3%
[24]
  viability, T/C: 43.8%
Second compound 3.16 µM, first compound 0.0316 µM
  viability, T/C: 67.3%
Second compound 3.16 µM, first compound 0.1 µM
  viability, T/C: 77.8%
Second compound 3.16 µM, first compound 0.316 µM
  viability, T/C: 81.8%
Second compound 3.16 µM, first compound 1 µM
  viability, T/C: 58.3%
Second compound 3.16 µM, first compound 3.16 µM
  viability, T/C: 48.5%
Second compound 3.16 µM, first compound 10 µM
  viability, T/C: 34.5%
Second compound 10 µM, first compound 0.0316 µM
  viability, T/C: 60%
Second compound 10 µM, first compound 0.1 µM
  viability, T/C: 70%
Second compound 10 µM, first compound 0.316 µM
  viability, T/C: 54.8%
Second compound 10 µM, first compound 1 µM
  viability, T/C: 52.6%
Second compound 10 µM, first compound 3.16 µM
  viability, T/C: 38.3%
Second compound 10 µM, first compound 10 µM
  viability, T/C: 22.9%

## Cn1cnc2c(F)c(Nc3ccc(Br)cc3Cl)c(C(=O)NOCCO)cc21 + Cc1nc(NC(=O)N2CCCC2C(N)=O)sc1-c1ccnc(C(C)(C)C(F)(F)F)c1
Second compound 0.0316 µM
  IC50: 289 nM
Second compound 0.1 µM
  IC50: 319 nM
Second compound 0.316 µM
  IC50: 160 nM
Second compound 1 µM
  IC50: 135 nM
Second compound 3.16 µM
  IC50: 574 nM
Second compound 10 µM
  IC50: 293 nM
Second compound 0.0316 µM, first compound 0.00949 µM
  viability, T/C: 96.6%
Second compound 0.0316 µM, first compound 0.03 µM
  viability, T/C: 63%
Second compound 0.0316 µM, first compound 0.0949 µM
  viability, T/C: 67.3%
Second compound 0.0316 µM, first compound 0.3 µM
  viability, T/C: 44.5%
Second compound 0.0316 µM, first compound 0.949 µM
  viability, T/C: 50.2%
Second compound 0.0316 µM, first compound 3 µM
  viability, T/C: 22.4%
Second compound 0.1 µM, first compound 0.00949 µM
  viability, T/C: 80.8%
Second compound 0.1 µM, first compound 0.03 µM
  viability, T/C: 62.1%
Second compound 0.1 µM, first compound 0.0949 µM
  viability, T/C: 59.7%
Second compound 0.1 µM, first compound 0.3 µM
  viability, T/C: 46.8%
Second compound 0.1 µM, first compound 0.949 µM
  viability, T/C: 49.6%
Second compound 0.1 µM, first compound 3 µM
  viability, T/C: 31.2%
Second compound 0.316 µM, first compound 0.00949 µM
  viability, T/C: 82.2%
Second compound 0.316 µM, first compound 0.03 µM
  viability, T/C: 60.4%
Second compound 0.316 µM, first compound 0.0949 µM
  viability, T/C: 62.8%
Second compound 0.316 µM, first compound 0.3 µM
  viability, T/C: 39.6%
Second compound 0.316 µM, first compound 0.949 µM
  viability, T/C: 35.3%
Second compound 0.316 µM, first compound 3 µM
  viability, T/C: 22.8%
Second compound 1 µM, first compound 0.00949 µM
  viability, T/C: 67.7%
Second compound 1 µM, first compound 0.03 µM
  viability, T/C: 44.9%
Second compound 1 µM, first compound 0.0949 µM
  viability, T/C: 48.2%
Second compound 1 µM, first compound 0.3 µM
  viability, T/C: 62%
Second compound 1 µM, first compound 0.949 µM
  viability, T/C: 27.3%
Second compound 1 µM, first compound 3 µM
  viability, T/C: 29.4%
Second compound 3.16 µM, first compound 0.00949 µM
  viability, T/C: 118%
Second compound 3.16 µM, first compound 0.03 µM
  viability, T/C: 88.8%
Second compound 3.16 µM, first compound 0.0949 µM
  viability, T/C: 74.1%
Second compound 3.16 µM, first compound 0.3 µM
  viability, T/C: 70.2%
Second compound 3.16 µM, first compound 0.949 µM
  viability, T/C: 38.8%
Second compound 3.16 µM, first compound 3 µM
  viability, T/C: 24.4%
Second compound 10 µM, first compound 0.00949 µM
  viability, T/C: 74.8%
Second compound 10 µM, first compound 0.03 µM
  viability, T/C: 70%
Second compound 10 µM, first compound 0.0949 µM
  viability, T/C: 62.4%
Second compound 10 µM, first compound 0.3 µM
  viability, T/C: 50.4%
Second compound 10 µM, first compound 0.949 µM
  viability, T/C: 31.1%
Second compound 10 µM, first compound 3 µM
  viability, T/C: 11.5%

From PubChem BioAssay AID1963969 (Molecular Pharmacology Branch, DTP, NCI, 2024)
